Laboratory results: US20090124635A1, “CHEMICAL COMPOUNDS” (priority 2005, published 2009)

Tested on: HIV-1 fusion
Assay: gp160 induced cell-cell fusion assay (HeLa P4 / CHO-Tat10 cell lines)
Assay type: cell-based
Details: Human immunodeficiency virus 1, HeLaP4, read-out: IC50 against HIV-1 fusion
Procedure: The gp160 induced cell-cell fusion assay uses a HeLa P4 cell line and a CHO-Tat10 cell line.
The HeLa P4 cell line expresses CCR5 and CD4 and has been transfected with HIV-1 LTR-β-Galactosidase. The media for this cell line is Dulbecco modified eagle's medium (D-MEM) (without L-glutamine) containing 10% foetal calf serum (FCS), 2 mM L-glutamine penicillin/streptomycin (Pen/Strep; 100 U/mL penicillin+[…] streptomycin), and 1 μg/ml puromycin.
The CHO cell line is a Tat (transcriptional trans activator)-expressing clone from a CHO JRR17.1 cell line that has been transfected with pTat puro plasmid. The media for this cell line is rich medium for mammalian cell culture originally developed at Roswell Park Memorial Institute RPMI1640 (without L-glutamine) containing 10% FCS, 2 mM L-glutamine, 0.5 mg/ml Hygromycin B and 12 μg/ml puromycin. The CHO JRR17.1 line expresses gp160 (JRFL) and is a clone that has been selected for its ability to fuse with a CCR5/CD4 expressing cell line.
Upon cell fusion, Tat present in the CHO cell is able to transactivate the HIV-1 long terminal repeat (LTR) present in the HeLa cell leading to the expression of the β-Galactosidase enzyme. This expression is then measured using a Fluor Ace™ β-Galactosidase reporter assay kit (Bio-Rad cat no. 170-3150). This kit is a quantitative fluorescent assay that determines the level of expression of β-galactosidase using 4-methylumbelliferul-galactopyranoside (MUG) as substrate. β-Galactosidase hydrolyses the fluorogenic substrate resulting in release of the fluorescent molecule 4-methylumbelliferone (4MU). Fluorescence of 4-methylumbelliferone is then measured on a fluorometer using an excitation wavelength of 360 nm and emission wavelength of 460 nm.
Compounds that inhibit fusion will give rise to a reduced signal and, following solubilisation in an appropriate solvent and dilution in culture medium, a dose-response curve for each compound can be used to calculate IC50 values.

Structure (SMILES)	IC50 [nM]
Cc1ccnc(C)c1C(=O)N1CCC(C)(N2CCC(N(Cc3ccccc3)C(=O)C3CC(F)(F)C3)CC2)CC1 [Example 1, N-benzyl-N-{1′-[(2,4-dimethylpyridin-3-yl)carbonyl]-4′-methyl-1,4′-bipiperidinyl-4-yl}-3,3-difluorocyclobutanecarboxamide]	0.013
Cc1ncnc(C)c1C(=O)N1C[C@H]2CC[C@@H](C1)[C@H]2N1CCC(N(Cc2ccccc2)C(=O)C2CC2)CC1 [Example 10, N-benzyl-N-(1-{(8-syn)-3-[(4,6-dimethylpyrimidin-5-yl)carbonyl]-3-azabicyclo}piperidin-4-yl)cyclopropanecarboxamide]	516
Cc1ncnc(C)c1C(=O)N1CCC(C)(N2CCC(N(Cc3ccccc3F)C(=O)C3CC(F)(F)C3)CC2)CC1 [Example 25, N-{1′-[(4,6-dimethylpyrimidin-5-yl)carbonyl]-4′-methyl-1,4′-bipiperidin-4-yl}-3,3-difluoro-N-(2-fluorobenzyl)cyclobutanecarboxamide]	5.5
Cc1ncnc(C)c1C(=O)N1CCC(C)(N2CCC(N(Cc3ccccc3)S(C)(=O)=O)CC2)CC1 [Example 29, N-benzyl-N-{1′-[(4,6-dimethylpyrimidin-5-yl)carbonyl]-4′-methyl-1,4′-bipiperidin-4-yl}methanesulfonamide]	346
Cc1ccnc(C)c1C(=O)N1CCC(C)(N2CCC(N(Cc3cccc(F)c3)C(=O)C3CC3)CC2)CC1 [Example 47, N-{1′-[(2,4-dimethylpyridin-3-yl)carbonyl]-4′-methyl-1,4′-bipiperidin-4-yl}-N-(3-fluorobenzyl)cyclopropanecarboxamide.2HCl]	0.343
